According to patent publication US20260240869A1, “ANTIPSEUDOMONAL FUSIDIC ACID COMPOUNDS” (priority 2022, published 2026):
Converted amounts (≈) assume the structure as drawn. Where two headings read alike, the source gives them in different places.

Columns and labels:
E. coli MG1655 [1] = assay: MIC, E. coli MG1655; format: cell-based; details: Escherichia coli, MG1655; CLSI (Table 8); read-out: E. coli MG1655 MIC
Experimental: (§1) Antimicrobial Susceptibility Tests. Susceptibility testing was performed in biological triplicate, using the microdilution broth method as outlined by the Clinical and Laboratory Standards Institute. Bacteria were cultured with cation-adjusted Meuller-Hinton broth (Sigma-Aldrich; catalogue number: 90922) or Luria-Bertani (LB) broth (Lennox) in round-bottom 96-well plates (Corning; catalogue number: 3788).

E. coli MG1655 [2] = assay: LC-MS/MS whole-cell accumulation assay, E. coli MG1655; format: cell-based; details: for EC Accumulation (FA): E. coli MG1655, accumulation of FA reported (Table 8); for EC accum.: E. coli, value ± s.e.m. (Chart 2)
Experimental: (§2) Accumulation Assay. The accumulation assay was performed in triplicate in batches of ten samples, with each batch containing tetracycline or ciprofloxacin as a positive control. P. aeruginosa PAO1, PAO1 A6, PA14, PA14 A40, and PA1280, and E. coli MG1655 were used in these experiments. For each replicate, 2.5 mL (E. coli) or 5 mL (P. aeruginosa) of an overnight culture was diluted into 250 mL of fresh Luria-Bertani broth (Lennox) or Tryptic Soy Broth (TSB) and grown at 37° C. with shaking to an optical density (OD600) of 0.55-0.60. The bacteria were pelleted at 3220 r.c.f. for 10 min at 4° C., and the supernatant was discarded. The pellets were resuspended in 40 mL of phosphate buffered saline (PBS) and pelleted as before, and the supernatant was discarded. The pellets were resuspended in 8.8 mL of fresh PBS and aliquoted into ten, 1.5 mL Eppendorf tubes (875 μL each). The number of colony-forming units (CFUs) was determined by a calibration curve. The samples were equilibrated at 37° C. with shaking for 5 min; compound was added (final concentration=50 μM), and then the samples were incubated at 37° C. with shaking for either 10 min. These time points were short enough to minimize metabolic and growth changes (no changes in OD600 or CFU count observed). After incubation, 800 μL of the cultures was carefully layered on 700 μL of silicone oil (9:1 AR20/Sigma High Temperature, cooled to −78° C.). Bacteria were pelleted through the oil by centrifuging at 13 000 r.c.f. for 2 min at room temperature (with the supernatant remaining above the oil); the supernatant and oil were then removed by pipetting. To lyse the samples, each pellet was dissolved in […] of water, and then, they were subjected to three (E. coli) or four (P. aeruginosa) freeze-thaw cycles of 3 min in liquid nitrogen followed by 3 min in a water bath at 65° C. P. aeruginosa samples were then treated with 50 µM DNase and RNase and incubated at 37° C. for 15 minutes. The lysates were pelleted at 13 000 r.c.f. for 2 min at room temperature, and the supernatant was collected ([…]). The debris was resuspended in 100 μL of methanol and pelleted as before. The supernatants were removed and combined with the previous supernatants collected. Finally, the remaining debris was removed by centrifuging at 20 000 r.c.f. for 10 min at room temperature. Supernatants were analyzed by LC-MS/MS.
(§3) Samples were analyzed with the 5500 QTRAP LC/MS/MS system (AB Sciex) with a 1200 series HPLC system (Agilent Technologies) including a degasser, an autosampler, and a binary pump. Liquid chromatography separation was performed on an Agilent SB-Aq column (4.6×50 mm, 5 μm) (Agilent Technologies) with mobile phase A (0.1% formic acid in water) and mobile phase B (0.1% formic acid in acetonitrile). The flow rate was 0.3 mL/min. The linear gradient was as follows: 0-3 min, 100% mobile phase A; 10-15 min, 2% mobile phase A; 15.5-21 min, 100% mobile phase A. The autosampler was set at 5° C. The injection volume was 15 μL. Mass spectra were acquired with both positive electrospray ionization at the ion spray voltage of 5500 V and negative electrospray ionization at the ion spray voltage of −4500 V. The source temperature was 450° C. The curtain gas, ion source gas 1, and ion source gas 2 were 33, 50, and 65, respectively. Multiple reaction monitoring was used to quantify the metabolites. Power analysis was not used to determine the number of replicates. Error bars represent the standard error of the mean of three biological replicates. The statistical significance of the accumulation was determined using a two sample Welch's t test (one-tailed test, assuming unequal variance) relative to the negative controls. All compounds evaluated in the biological assays were >95% pure.

P. aeruginosa PAO1 [3] = assay: MIC, CLSI broth microdilution, P. aeruginosa PAO1; format: cell-based, Pseudomonas aeruginosa; details: for MIC: Pseudomonas aeruginosa
Experimental: as §1

P. aeruginosa PAO1 [4] = assay: LC-MS/MS whole-cell accumulation assay, P. aeruginosa PAO1; format: cell-based, Pseudomonas aeruginosa; details: for PA accum.: P. aeruginosa, value ± s.e.m. (Chart 2)
Experimental: as §2, §3
MBN assay. Assays measuring permeabilization by polymyxin B nonapeptide (PMBN) were performed as above, with the addition of 8 μg/mL PMBN immediately before the compound of interest was added.

WT EC = details: retrospective literature analysis (Table 6); cited from earlier work
WT PA = details: retrospective literature analysis (Table 6); cited from earlier work
tolC EC = details: retrospective literature analysis (Table 6); cited from earlier work
P. aeruginosa PAΔ6 [5] = assay: LC-MS/MS whole-cell accumulation assay, PAΔ6; format: cell-based, Pseudomonas aeruginosa
Experimental: as §2, §3

P. aeruginosa PAΔ6 [6] = assay: MIC, efflux pump knockout strain PAΔ6; format: cell-based, Pseudomonas aeruginosa
Experimental: as §1

[7] = PAO1, CLSI (Table 8), read-out: P. aeruginosa PAO1 MIC

Compound: CC(=O)O[C@H]1C[C@@]2(C)[C@@H](C[C@@H](O)[C@H]3[C@@]4(C)CC[C@@H](O)[C@@H](C)[C@@H]4CC[C@@]32C)/C1=C(\CCC=C(C)C)C(=O)O/N=C(\N)CNCCCNCCCN [FA prodrug 3]
- MIC (E. coli MG1655 [1]): 32 µg/mL (≈ 45.6 µM)
- EC Accumulation (FA) (E. coli MG1655 [2]): 1764 ± 37 nmol/1012 CFUs
- MIC (P. aeruginosa PAO1 [3]; [7]): 128 µg/mL (≈ 182 µM)

Compound: Cc1ccc(C(=O)N(CCCN)[C@@H](c2nc3cc(Cl)ccc3c(=O)n2Cc2ccccc2)C(C)C)cc1 [Compound 56]
- EC accum. (E. coli MG1655 [2]): 244 ± 31 nmol/10^12 CFUs
- PA accum. (P. aeruginosa PAO1 [4]): 658 ± 113 nmol/10^12 CFUs

Compound: CCNc1cc(F)cc2c1[nH]c1ncc(-c3cnc(OC)nc3)c(-n3ncc4c3CNC4)c12 [Compound 17x]
- WT EC MIC (WT EC): 0.81 µg/mL
- WT PA MIC (WT PA): 10 µg/mL

Compound: NCCCCCCNS(=O)(=O)c1cccc2ccccc12 [Compound 54]
- EC accum. (E. coli MG1655 [2]): 108 ± 17 nmol/10^12 CFUs
- PA accum. (P. aeruginosa PAO1 [4]): 399 ± 63 nmol/10^12 CFUs

Compound: N#Cc1ccc(-c2cncc3c2CCCC3N)cc1 (stereo not drawn) [Compound 52]
- EC accum. (E. coli MG1655 [2]): 929 ± 39 nmol/10^12 CFUs
- PA accum. (P. aeruginosa PAO1 [4]): 161 ± 12 nmol/10^12 CFUs

Compound: CC(=O)O[C@H]1C[C@@]2(C)[C@@H](C[C@@H](O)[C@H]3[C@@]4(C)CC[C@@H](O)[C@@H](C)[C@@H]4CC[C@@]32C)/C1=C(\CCC=C(C)C)C(=O)O/N=C(\N)CNCCCN [FA prodrug 2]
- MIC (E. coli MG1655 [1]): 256 µg/mL (≈ 397 µM)
- EC Accumulation (FA) (E. coli MG1655 [2]): 969 ± 71 nmol/1012 CFUs
- MIC (P. aeruginosa PAO1 [3]; [7]): > 256 µg/mL

Compound: Cn1cc(C2=C(c3c4n(c5ccccc35)CC[C@H](CN)C4)C(=O)NC2=O)c2ccccc21 [Compound 55]
- EC accum. (E. coli MG1655 [2]): 17 ± 7 nmol/10^12 CFUs
- PA accum. (P. aeruginosa PAO1 [4]): 1193 ± 27 nmol/10^12 CFUs

Compound: NC1CCCc2c1cncc2N1Cc2cc(Cl)ccc2C1=O (stereo not drawn) [Compound 51]
- EC accum. (E. coli MG1655 [2]): 500 ± 10 nmol/10^12 CFUs
- PA accum. (P. aeruginosa PAO1 [4]): 222 ± 11 nmol/10^12 CFUs

Compound: CC(=O)C1=C(O)[C@H](N)[C@@H]2Cc3c(c(O)c4c(O)c(C)ccc4c3C)C(=O)[C@]2(O)C1=O [CHD]
- WT PA MIC (WT PA): 16 µg/mL
- tolC EC MIC (tolC EC): 0.5 µg/mL

Compound: CC(=O)O[C@H]1C[C@@]2(C)[C@@H](C[C@@H](O)[C@H]3[C@@]4(C)CC[C@@H](O)[C@@H](C)[C@@H]4CC[C@@]32C)/C1=C(\CCC=C(C)C)C(=O)O/N=C(\N)CN [FA prodrug 1]
- MIC (E. coli MG1655 [1]): > 256 µg/mL
- EC Accumulation (FA) (E. coli MG1655 [2]): 850 ± 61 nmol/1012 CFUs
- MIC (P. aeruginosa PAO1 [3]; [7]): > 256 µg/mL

Compound: O=C(N[C@H](CO)[C@H](O)c1ccc([N+](=O)[O-])cc1)C(Cl)Cl [Chloramphenicol]
- change of accumulation in efflux pump knockout PAΔ6 versus WT PAO1 (P. aeruginosa PAΔ6 [5]; FIG. 1c): increase in accumulation
- Fold change (Accum) (P. aeruginosa PAΔ6 [5]; PAΔ6 Accum / WT Accum (Table 7)): 4.4
- PAΔ6 Accum (P. aeruginosa PAΔ6 [5]; ± s.e.m. (Table 7)): 537 ± 19 nmol/10^12 CFUs
- MIC (P. aeruginosa PAO1 [3]; WT P. aeruginosa PAO1, MH or LB broth (Table 2), read-out: WT MIC): > 512 µg/mL
- WT MIC (P. aeruginosa PAO1 [3]; WT P. aeruginosa PAO1, MH or LB broth (Table 7)): >512 µg/mL
- WT Accum (P. aeruginosa PAO1 [4]; WT PAO1, ± s.e.m. (Table 7)): 122 ± 23 nmol/10^12 CFUs
- PAΔ6 MIC (P. aeruginosa PAΔ6 [6]; MH or LB broth (Table 7)): 4 µg/mL
- Fold change (P. aeruginosa PAΔ6 [6]; MIC ratio WT PAO1 / PAΔ6 (Table 2)): >128
- Fold change (MIC) (P. aeruginosa PAΔ6 [6]; WT MIC / PAΔ6 MIC (Table 7)): >128
- PAΔ6 MIC (P. aeruginosa PAΔ6 [6]; efflux pump KO strain, MH or LB broth (Table 2)): 4 µg/mL
